The results in this text go back to patent US20220289765A1, “CRYSTAL OF CARCINOGENIC FUSED KINASE INHIBITOR AND APPLICATIONS THEREOF” (Simcere Pharmaceutical Co., Ltd., priority 2019, published 2022).

For data set [1], the system named is Ba/F3 SLC34A2-ROS1-G2032R. As to the kind of experiment: Cell proliferation inhibition (CellTiter-Glo, 72 h). It counts as cell-based. As to conditions: Mus musculus, BaF3, read-out: Half Inhibitory Concentrations of Cells IC50, Ba/F3 SLC34A2-ROS1-G2032R.
Data set [2] is described as follows: Pharmacokinetic test in mice. It counts as in vivo. The conditions noted are these: male CD-1 mice; for AUC(0-t): read-out: Area under Curve AUC0-last. How it is done:
The drug concentrations of the compounds in plasma at different time points were determined by LC/MS/MS method after single intravenous (IV) and intragastric (PO) administration of the compounds to 7-9 week old male CD-1 mice as the test animals. The pharmacokinetic behaviors of the compounds of the present invention in mice were studied and pharmacokinetic properties thereof were evaluated.
The compounds were prepared into clear solutions using 5% DMSO+10% solutol+85% water as a solvent for administration in IV (intravenous injection) and PO (gavage) groups. The administration dosage of each compound was 3 mg/kg for the IV group and […] for the PO group.

Data set [3] has as its system Ba/F3 LMNA-NTRK1-G595R. In words: Cell proliferation inhibition (CellTiter-Glo, 72 h). The format is cell-based. As to conditions: Mus musculus, BaF3, read-out: Half Inhibitory Concentrations of Cells IC50, Ba/F3 LMNA-NTRK1-G595R.
The target in data set [4] is T1, TrkA-G595R (Homo sapiens, UniProt P04629, G595R).
T1 construct: purchased Reaction Biology Corp
T1 sequence (P04629 33-796 G595R): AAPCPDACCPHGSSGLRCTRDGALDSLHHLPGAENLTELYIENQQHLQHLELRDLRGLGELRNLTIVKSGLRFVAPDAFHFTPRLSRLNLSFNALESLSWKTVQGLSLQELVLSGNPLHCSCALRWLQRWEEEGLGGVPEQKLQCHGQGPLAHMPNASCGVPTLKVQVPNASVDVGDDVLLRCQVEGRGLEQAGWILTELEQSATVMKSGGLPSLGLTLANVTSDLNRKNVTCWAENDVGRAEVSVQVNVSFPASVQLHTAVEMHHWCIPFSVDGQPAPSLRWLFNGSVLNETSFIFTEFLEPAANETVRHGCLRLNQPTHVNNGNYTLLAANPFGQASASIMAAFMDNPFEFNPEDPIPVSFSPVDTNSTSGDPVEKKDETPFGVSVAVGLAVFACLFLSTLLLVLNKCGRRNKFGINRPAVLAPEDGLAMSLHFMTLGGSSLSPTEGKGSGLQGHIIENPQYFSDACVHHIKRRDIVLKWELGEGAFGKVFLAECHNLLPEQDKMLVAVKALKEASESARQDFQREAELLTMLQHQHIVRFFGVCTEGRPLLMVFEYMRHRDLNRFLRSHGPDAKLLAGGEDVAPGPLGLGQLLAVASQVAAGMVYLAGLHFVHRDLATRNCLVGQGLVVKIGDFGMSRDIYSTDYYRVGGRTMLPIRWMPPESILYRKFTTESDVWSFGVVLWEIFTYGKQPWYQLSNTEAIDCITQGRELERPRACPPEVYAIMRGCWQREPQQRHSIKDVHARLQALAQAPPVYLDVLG
In words: Kinase inhibitory activity (33P-ATP filtration-binding, Reaction Biology Corp.). The format is biochemical. As to conditions: read-out: Half Inhibitory Concentrations of Kinases IC50, TrkA-G595R. As for the experimental part:
(§1) The resulting mixture was incubated at room temperature for 20 minutes, and a certain concentration of 33P-ATP was added to the reaction mixture to initiate the reaction, followed by incubation at room temperature for 120 minutes. Finally, the radioactivity of the reactants was detected by a filtration-binding method. The final kinase activity was expressed by the ratio of the remaining kinase activity in the test sample to the kinase activity of the DMSO control group. The dose-effect curve was fitted by GraphPad software and the IC50 values were calculated.

In data set [5] the target is T2, TrkA-G667C (Homo sapiens, UniProt P04629, G667C).
T2 construct: purchased Reaction Biology Corp
T2 sequence (P04629 33-796 G667C): as the sequence (P04629 33-796 G595R) above, with R563G, G635C counted along it
The description is as above. As to conditions: read-out: Half Inhibitory Concentrations of Kinases IC50, TrkA-G667C. It counts as biochemical. How it is done:
as §1

Data set [6] concerns the target T3, TrkC (Homo sapiens, UniProt Q16288).
T3 construct: purchased Reaction Biology Corp
The description is as above. The format is biochemical. As to conditions: read-out: Half Inhibitory Concentrations of Kinases IC50, TrkC. As for the experimental part:
as §1

Data set [7] has as its target T4, Ros1 (Homo sapiens, UniProt P08922).
T4 construct: purchased Reaction Biology Corp
The description is as above. As to conditions: read-out: Half Inhibitory Concentrations of Kinases IC50, Ros1. It counts as biochemical. As for the experimental part: as §1

The target of data set [8] is T5, TrkA (Homo sapiens, UniProt P04629).
T5 construct: purchased Reaction Biology Corp
T5 sequence (P04629 33-796): as the sequence (P04629 33-796 G595R) above, with R563G counted along it
The data set is described as above. The conditions noted are these: read-out: Half Inhibitory Concentrations of Kinases IC50, TrkA. It counts as biochemical. As for the experimental part:
as §1

Data set [9] has as its target T6, Ros-G2032R (Homo sapiens, UniProt P08922, G2032R).
T6 construct: purchased Reaction Biology Corp
The data set is described as above. It counts as biochemical. The conditions noted are these: read-out: Half Inhibitory Concentrations of Kinases IC50, Ros-G2032R. How it is done: as §1

For data set [10], the system named is human colon cancer cell line KM12 cells subcutaneous xenograft tumor. In words: Efficacy test in mice, KM12 subcutaneous xenograft. The format is in vivo, BALB/c mouse. As to conditions: PO. As for the experimental part: The in vivo efficacy of test drugs such as the compound of Formula (I) on human colon cancer cell line KM12 cells subcutaneous xenograft tumor in a BALB/c mouse model was evaluated.
The compounds were prepared into clear solutions using 5% DMSO+10% solutol+85% water as a solvent for administration in PO (gavage) groups.
The tumor diameter was measured twice a week using a vernier caliper. The formula for calculating the tumor volume is: V=0.5×a×b^2, wherein a and b represent the long diameter and the short diameter of the tumor, respectively. The antitumor efficacy of the compounds was evaluated with TGI (%), which reflects the inhibition rate of tumor growth.
Statistical analysis was performed using SPSS software based on relative tumor volume and tumor weight at the end of the experiment. Comparisons among multiple groups were analyzed by one-way ANOVA. If the variances were homogeneous (no significant difference in F-values), the analysis was performed by the Tukey's method, and if the variances were not homogeneous (significant difference in F-values), the test was performed by the Games-Howell method. P<0.05 was considered as a significant difference.

Data set [11] deals with Ba/F3 LMNA-NTRK1-WT stable transformant cell line. As to the kind of experiment: Cell proliferation inhibition (CellTiter-Glo, 72 h). It counts as cell-based. As to conditions: Mus musculus, BaF3, read-out: Half Inhibitory Concentrations of Cells IC50, Ba/F3 LMNA-NTRK1-WT. How it is done:
Adenosine Tri-Phosphate (ATP) is an energy carrier shared by various life activities in nature and is the smallest unit of energy storage and transfer. In CellTiter-Glo™ Live Cell Detection Kit, luciferase was used as a detection substance, and it required the involvement of ATP during luminescence. CellTiter-Glo™ reagent was added to the cell culture medium to measure a luminescence value, and the light signal was proportional to the amount of ATP in the system, and ATP was positively correlated to the number of viable cells. Therefore, by detecting the ATP content using the CellTiter-Glo Kit, cell proliferation can be detected. In this test, the cell line was Ba/F3 LMNA-NTRK1-WT stable transformant cell line, and the number of cells was 5000/well.
• a) Cells in the logarithmic growth phase were harvested and counted by using a […]. Cell viability was detected by trypan blue exclusion assay to ensure that the cell viability was above 90%. • b) The cell concentration was adjusted, and 90 μL cell suspension was added to a 96-well plate, respectively. • c) Cells in the 96-well plate were incubated overnight at 37° C., 5% CO2 and 95% humidity. […]
The data were analyzed using GraphPad Prism 5.0 software, and were fitted to obtain a dose-effect curve using a non-linear S-curve regression, and the IC50 values were calculated therefrom.

Like-named read-outs stand apart in the source and are kept apart here.

T4 sequence (P08922 28-2347): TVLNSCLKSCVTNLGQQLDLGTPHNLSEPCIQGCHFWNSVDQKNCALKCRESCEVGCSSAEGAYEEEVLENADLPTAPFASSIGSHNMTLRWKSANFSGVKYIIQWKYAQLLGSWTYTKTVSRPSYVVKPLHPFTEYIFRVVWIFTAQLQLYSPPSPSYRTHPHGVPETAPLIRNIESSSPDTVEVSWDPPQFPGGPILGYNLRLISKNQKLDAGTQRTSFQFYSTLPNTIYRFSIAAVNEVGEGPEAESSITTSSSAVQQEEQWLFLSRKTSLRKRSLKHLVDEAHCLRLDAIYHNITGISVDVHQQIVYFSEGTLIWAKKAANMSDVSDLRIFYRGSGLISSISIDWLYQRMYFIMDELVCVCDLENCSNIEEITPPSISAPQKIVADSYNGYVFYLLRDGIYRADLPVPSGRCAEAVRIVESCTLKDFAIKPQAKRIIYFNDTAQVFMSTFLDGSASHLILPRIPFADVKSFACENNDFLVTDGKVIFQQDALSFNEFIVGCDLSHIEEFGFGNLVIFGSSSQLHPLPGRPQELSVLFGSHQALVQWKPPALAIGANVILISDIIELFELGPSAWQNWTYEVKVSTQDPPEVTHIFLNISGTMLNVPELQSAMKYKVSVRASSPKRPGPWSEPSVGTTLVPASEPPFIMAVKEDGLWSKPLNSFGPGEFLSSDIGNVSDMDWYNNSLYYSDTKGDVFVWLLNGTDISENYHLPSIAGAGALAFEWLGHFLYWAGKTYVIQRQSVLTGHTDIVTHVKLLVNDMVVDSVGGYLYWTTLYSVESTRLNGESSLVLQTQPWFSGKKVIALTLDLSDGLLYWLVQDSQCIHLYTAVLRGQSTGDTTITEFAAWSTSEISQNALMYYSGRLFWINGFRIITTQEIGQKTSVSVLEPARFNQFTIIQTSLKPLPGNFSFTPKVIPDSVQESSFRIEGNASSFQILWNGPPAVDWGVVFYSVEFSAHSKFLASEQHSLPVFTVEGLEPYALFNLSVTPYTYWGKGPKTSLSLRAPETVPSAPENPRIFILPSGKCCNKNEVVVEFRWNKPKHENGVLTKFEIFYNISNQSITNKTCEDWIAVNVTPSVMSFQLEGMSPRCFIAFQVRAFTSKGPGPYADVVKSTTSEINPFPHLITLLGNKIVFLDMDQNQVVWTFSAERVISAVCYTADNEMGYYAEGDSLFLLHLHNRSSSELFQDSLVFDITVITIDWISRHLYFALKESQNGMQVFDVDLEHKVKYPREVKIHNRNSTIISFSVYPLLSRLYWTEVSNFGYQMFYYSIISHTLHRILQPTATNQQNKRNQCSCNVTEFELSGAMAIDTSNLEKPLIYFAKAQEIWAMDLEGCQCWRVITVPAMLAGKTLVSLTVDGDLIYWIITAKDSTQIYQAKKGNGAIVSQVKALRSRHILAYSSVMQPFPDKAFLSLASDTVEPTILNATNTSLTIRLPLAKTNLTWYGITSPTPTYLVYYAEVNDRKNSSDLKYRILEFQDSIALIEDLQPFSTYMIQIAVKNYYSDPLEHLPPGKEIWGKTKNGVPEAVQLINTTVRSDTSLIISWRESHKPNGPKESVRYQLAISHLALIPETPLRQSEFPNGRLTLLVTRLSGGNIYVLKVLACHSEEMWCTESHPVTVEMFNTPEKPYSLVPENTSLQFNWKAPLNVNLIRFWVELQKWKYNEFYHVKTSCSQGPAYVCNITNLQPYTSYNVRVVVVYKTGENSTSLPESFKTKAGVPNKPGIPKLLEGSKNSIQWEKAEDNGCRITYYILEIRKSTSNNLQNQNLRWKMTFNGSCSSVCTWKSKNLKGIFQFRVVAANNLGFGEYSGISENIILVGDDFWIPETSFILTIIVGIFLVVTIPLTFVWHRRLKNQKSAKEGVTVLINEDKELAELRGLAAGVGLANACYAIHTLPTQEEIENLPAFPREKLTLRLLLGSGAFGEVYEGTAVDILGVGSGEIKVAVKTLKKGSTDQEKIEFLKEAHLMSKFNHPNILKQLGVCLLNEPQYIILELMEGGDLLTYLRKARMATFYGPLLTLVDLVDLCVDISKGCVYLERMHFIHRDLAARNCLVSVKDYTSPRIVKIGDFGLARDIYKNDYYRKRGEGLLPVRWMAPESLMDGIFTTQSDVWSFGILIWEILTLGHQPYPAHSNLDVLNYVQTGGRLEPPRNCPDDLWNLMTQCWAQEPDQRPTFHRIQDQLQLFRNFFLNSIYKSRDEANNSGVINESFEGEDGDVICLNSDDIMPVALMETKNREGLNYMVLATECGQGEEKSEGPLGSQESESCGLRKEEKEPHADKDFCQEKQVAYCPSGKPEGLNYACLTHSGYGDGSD
T6 sequence (P08922 28-2347 G2032R): as the sequence (P08922 28-2347) above, with G2005R counted along it
T3 sequence (Q16288 32-839): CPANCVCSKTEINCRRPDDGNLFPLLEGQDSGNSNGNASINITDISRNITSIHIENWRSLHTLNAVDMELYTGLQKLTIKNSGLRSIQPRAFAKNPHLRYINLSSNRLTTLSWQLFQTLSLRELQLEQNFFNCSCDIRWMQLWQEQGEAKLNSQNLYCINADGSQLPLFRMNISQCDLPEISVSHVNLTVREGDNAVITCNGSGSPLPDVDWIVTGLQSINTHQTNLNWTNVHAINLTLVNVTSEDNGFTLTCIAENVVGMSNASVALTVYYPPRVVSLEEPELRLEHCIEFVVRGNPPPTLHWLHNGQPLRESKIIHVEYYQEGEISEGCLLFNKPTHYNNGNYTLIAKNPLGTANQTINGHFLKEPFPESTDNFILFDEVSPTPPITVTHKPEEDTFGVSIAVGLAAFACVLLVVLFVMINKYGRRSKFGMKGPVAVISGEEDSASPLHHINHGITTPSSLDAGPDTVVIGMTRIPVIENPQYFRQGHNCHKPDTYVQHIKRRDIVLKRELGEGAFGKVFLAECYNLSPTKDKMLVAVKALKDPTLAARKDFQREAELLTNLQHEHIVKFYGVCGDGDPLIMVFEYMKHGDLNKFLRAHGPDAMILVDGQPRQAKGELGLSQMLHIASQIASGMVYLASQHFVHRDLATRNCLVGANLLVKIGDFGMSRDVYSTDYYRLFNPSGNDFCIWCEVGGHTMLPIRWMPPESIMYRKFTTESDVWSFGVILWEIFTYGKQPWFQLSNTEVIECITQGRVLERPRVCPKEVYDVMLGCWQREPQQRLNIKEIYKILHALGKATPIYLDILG

Consider `O=C1NC2(CC2)COc2ncc(F)cc2[C@H]2CCON2c2ccn3ncc1c3n2` [Compound of Formula (I)], for which the IC50 turned out to be 16.1 nM in [1]; 6.2 nM in [3]; 3.6 nM in [4]; 7 nM in data set [5]; 0.14 nM in [6]; 0.14 nM in data set [7]. In addition, the IC50 in data set [8] was 2.07 nM; in data set [9], 0.4 nM; in [11], 1.26 nM. Further, in data set [2] (IV, 3 mg/kg), the “Apparent Clearance Cl” value was 7.2 mL/kg/min. In data set [2] (mouse, plasma, IV, 3 mg/kg, read-out: Apparent Distribution Volume Vd), the Vd stood at 0.49 L/kg. In addition, the AUC(0-t) in data set [2] (mouse, plasma, IV, 3 mg/kg) amounted to 17.5 µM·h; in [2] (mouse, plasma, PO, dosage given as 10 mL/kg), 29.8 µM·h. The half-life in [2] (mouse, plasma, IV, 3 mg/kg, read-out: Half-life T1/2 (converted)) is 45 min. Besides, in [2] (mouse, plasma, PO (10 mL/kg [sic]) vs IV 3 mg/kg, read-out: Bioavailability F %), the bioavailability came out at 51%. Further, the Cmax in [2] (mouse, plasma, PO, dosage given as 10 mL/kg, read-out: Peak Concentration Cmax) stood at 9.14 µM. Besides, the Tmax in [2] (mouse, plasma, PO, dosage given as 10 mL/kg, read-out: Time to Peak Tmax) was 30 min. The T/C is listed as 33.18% in [10] (3 mg/kg) and 15.63% in [10] (15 mg/kg). In addition, the TGI in data set [10] (3 mg/kg) came out at 71.23%; in data set [10] (15 mg/kg), 88.61%.
